# Data: patent US20230181519A1, “Compositions And Methods For Treating Nicotine-Related Disorders And Symptoms Using Dihydromyricetin” (priority 2021, published 2023)
# Entries after “also recorded” stand apart in the source; their conditions may differ.
# How the values were obtained:
# C57BL/J mice = experiment: NIC-induced behavioral sensitization (local motor activity); assay type: in vivo
# Description: In this example, the effects of DHM on NIC-induced behavioral sensitization in mice were measured.
# C57BL/J mice were repetitively treated with NIC (0.5 mg/kg, i.p.), and the local motor activities were measured.
# VTA DA neurons [1] = experiment: VTA DA neuronal firing in anesthetized mice (in vivo recording); details: i.v.
# Text: Part C is after in vivo recording. The recording site was dyed using blue-sky dye, and confirmed by cutting brain sections that contained VTA.
# [2] = tested on: NIC-induced conditioned-place preference; experiment: NIC-induced conditioned-place preference (CPP); assay type: in vivo
# Description: In this example, the effects of DHM on NIC-induced conditioned-place preference (“CCP”) were measured.
# Part A is the CPP performance protocol.
# VTA DA neurons [3] = experiment: VTA dopamine neuronal firing in VTA slices (cell-attached recording); assay type: cell-based, mouse
# Description: In this example, the effects of DHM on mouse ventral tegmental area (“VTA”) dopamine (“DPA”) neuronal firing in slices were measured.
# α4β2-nAChRs = target: T1, α4β2-nAChRs (Homo sapiens, UniProt P17787+P43681); experiment: ACh-induced whole-cell currents of transfected α4β2-nAChRs in SH-EP1 cells; assay type: cell-based; details: DHM co-applied at different concentrations, SH-EP1 cells (FIG. 1)
# T1 construct: expressed in transfected cells; host or cells: human SH-EP1 cells
# Description: In this example, the effects of DHM on transfected α4β2-nAChRs in human SH-EP1 cells (a model system to study human acetylcholine (“ACh”) receptors) were measured. Traces of ACh-induced whole-cell currents co-applied with different concentrations of DHM were created and examined.
# [4] = NIC 0.5 mg/kg, i.p., repetitive, C57BL/J mice (FIG. 6)
# [5] = NIC 0.5 mg/kg, anesthetized mice (FIG. 3 B)
# T1 sequence (P43681 29-627 limits assumed): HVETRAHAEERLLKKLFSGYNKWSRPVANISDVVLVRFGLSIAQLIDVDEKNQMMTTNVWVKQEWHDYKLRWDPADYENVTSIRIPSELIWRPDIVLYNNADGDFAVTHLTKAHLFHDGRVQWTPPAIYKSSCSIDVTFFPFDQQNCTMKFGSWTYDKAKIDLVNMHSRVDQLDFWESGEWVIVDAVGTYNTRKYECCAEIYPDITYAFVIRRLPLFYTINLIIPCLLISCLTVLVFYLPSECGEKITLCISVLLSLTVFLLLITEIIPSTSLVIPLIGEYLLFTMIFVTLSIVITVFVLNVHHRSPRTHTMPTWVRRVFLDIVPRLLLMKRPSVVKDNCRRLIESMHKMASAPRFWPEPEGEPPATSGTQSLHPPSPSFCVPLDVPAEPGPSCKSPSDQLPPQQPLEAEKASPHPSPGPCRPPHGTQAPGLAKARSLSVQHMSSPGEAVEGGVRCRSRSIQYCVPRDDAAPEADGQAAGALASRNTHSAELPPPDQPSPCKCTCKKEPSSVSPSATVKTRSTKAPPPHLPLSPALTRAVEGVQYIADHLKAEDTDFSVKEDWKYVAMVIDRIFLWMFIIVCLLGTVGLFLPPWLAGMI
# T1 sequence (P17787 26-502): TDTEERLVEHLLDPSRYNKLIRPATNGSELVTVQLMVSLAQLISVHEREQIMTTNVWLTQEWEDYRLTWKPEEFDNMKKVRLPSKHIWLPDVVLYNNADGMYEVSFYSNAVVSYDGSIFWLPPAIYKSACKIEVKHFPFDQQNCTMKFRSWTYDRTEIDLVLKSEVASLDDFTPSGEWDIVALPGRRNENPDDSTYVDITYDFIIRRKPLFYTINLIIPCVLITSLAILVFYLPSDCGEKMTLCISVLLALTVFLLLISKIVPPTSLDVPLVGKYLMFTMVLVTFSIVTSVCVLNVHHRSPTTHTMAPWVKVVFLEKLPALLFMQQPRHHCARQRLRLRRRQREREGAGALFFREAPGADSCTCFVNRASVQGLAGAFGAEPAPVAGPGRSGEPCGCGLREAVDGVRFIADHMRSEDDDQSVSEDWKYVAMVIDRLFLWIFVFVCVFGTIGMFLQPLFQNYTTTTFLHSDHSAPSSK
a4b2-nAChR-mediated whole-cell currents (α4β2-nAChRs),SMILES,"NIC-induced behavioral sensitization (local motor activity), effect of DHM (C57BL/J mice; NIC group vs NIC+DHM group (FIG. 7))","DA neuronal firing rate, effect of DHM (VTA DA neurons [1]; DHM 1 and 10 mg/kg, anesthetized mice (FIG. 4))","NIC-induced AP firing increase, effect of DHM (VTA DA neurons [1]; DHM 1 and 10 mg/kg, anesthetized mice (FIG. 4 D))","NIC-induced CPP, overall ([2]; FIG. 5)","NIC-induced CPP after withdrawal 5 days of NIC (day 19) ([2]; FIG. 5 B, C)",NIC-induced CPP at test day (day 13) ([2]; FIG. 5 C),"NIC-induced enhancement of AP firing rate, effect of DHM (VTA DA neurons [3]; VTA slices (FIG. 2 C, D))","DA neuron firing rate, effect of DHM itself (VTA DA neurons [3]; VTA slices, different concentrations of DHM (FIG. 2 D))",motor activity (total move distance) with repetitive injections of NIC (C57BL/J mice; [4]),motor activity after withdrawal at 5 and 10 days (C57BL/J mice; [4]),"DA neuronal firing, time-frequency relationship after NIC (VTA DA neurons [1]; NIC 0.5 mg/kg, anesthetized mice (FIG. 3 A))",AP firing rate after systemic injection of NIC (VTA DA neurons [1]; [5]),bursting firing after systemic injection of NIC (VTA DA neurons [1]; [5]),slow oscillations (SO) after systemic injection of NIC (VTA DA neurons [1]; [5]),"AP firing rate of DA neurons, effect of bath-applied nicotine (VTA DA neurons [3]; VTA slices, cell-attached recording (FIG. 2 A, B))"
inhibited,"O=C1c2c(O)cc(O)cc2O[C@H](c2cc(O)c(O)c(O)c2)[C@H]1O [DHM, dihydromyricetin]",significantly reduced; also recorded: inhibits,reduced,abolished,significantly reduces; also recorded: inhibits,abolished,abolished,abolished; also recorded: prevented,reduced DA firing,–,–,–,–,–,–,–
–,"CN1CCCC1c1cccnc1 (stereo not shown) [NIC, nicotine]",–,–,–,–,–,–,–,–,increased,still maintained at a high level,an initial reduction following by a long-lasting increase,enhanced,enhanced,reduction,enhancement of AP firing rate
